Where two headings read alike, the source gives them in different places.

One assay concerns BaF3 parental cells. Nature of the assay: In vitro cell proliferation, BaF3 parental line + IL3 (CellTiter-Glo). It counts as cell-based, murine. The conditions noted are these: read-out: Prolif BaF3 + IL3 (IC50).
A further assay concerns the target PIM1 (Homo sapiens (Human), UniProt P11309). Nature of the assay: Pim kinase inhibition, PIM1 LC3K (Example 901). Format: biochemical.
The subject of assay [1] is BaF3 PIM1 cells. As to conditions: read-out: Prolif BaF3_PIM1 (IC50), incubated overnight.
Procedure: (§1) BaF3 parental line was obtained from the DSMZ repository. BaF3 lines transfected with PIM 1 or PIM2 were generated. Mouse IL-3 was purchased from R&D Systems. G418 was purchased from Clontech. Media for BaF3 parental line contained RPMI, 10% FBS, 2 mM L-Glutamine, 2 ng/mL mIL-3. Media for BaF3 PIM1 & 2 lines contained RPMI, 10% FBS, 2 mM L-Glutamine, 250 μg/mL.
(§2) BaF3, a murine interleukin-3 dependent pro-B cell line, parental cells, BaF3 PIM1 cells, BaF3 PIM2 cells, and MM1.S (multiple myeloma) cells were seeded at 2 k/well, 5 k/well, 5 k/well, and 10 k/well respectively, in a 384-well plate, at 45 μL/well. Test compound was added at 5 μL/well. BaF3 cells (parental and transfected) were incubated overnight, while MM1.S cells were incubated for 72 hours at 37° C., 5% CO2. CELL TITER GLO® Reagent (Promega) was added at 50 μL/well, the plates were incubated for 30 minutes, and their luminescence read on an HT Analyst. IC50/EC50 values for the test compound were calculated.
Assay [2] deals with MM1.S (multiple myeloma) cells. Nature of the assay: In vitro cell proliferation, MM1.S multiple myeloma cells (CellTiter-Glo, ATP). The conditions noted are these: read-out: Prolif MM1S ATP (EC50). Format: cell-based. The method, boiled down:
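BaF3 parental cells (medium with 2 ng/mL mIL-3) seeded at 2 k/well and MM1.S at 10 k/well, then exposed to test compound at 37° C, 5% CO2: BaF3 overnight, MM1.S for 72 hours. Viability read by CellTiter-Glo; IC50/EC50 values calculated.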
Background: In ATP-based viability assays light output follows the ATP content of the culture.

Assay [3] deals with BaF3 PIM1 cells. Nature of the assay: cells. As to conditions: Mus musculus, BaF3, read-out: Prolif BaF3_PIM1 (IC50), BaF3 PIM1 cells, incubated overnight.
Procedure: as §1, §2
The mark [4] stands for this setting: Mus musculus, BaF3, BaF3 parental cells with IL-3, incubated overnight.

Chain of PIM1 (P11309 whole entry): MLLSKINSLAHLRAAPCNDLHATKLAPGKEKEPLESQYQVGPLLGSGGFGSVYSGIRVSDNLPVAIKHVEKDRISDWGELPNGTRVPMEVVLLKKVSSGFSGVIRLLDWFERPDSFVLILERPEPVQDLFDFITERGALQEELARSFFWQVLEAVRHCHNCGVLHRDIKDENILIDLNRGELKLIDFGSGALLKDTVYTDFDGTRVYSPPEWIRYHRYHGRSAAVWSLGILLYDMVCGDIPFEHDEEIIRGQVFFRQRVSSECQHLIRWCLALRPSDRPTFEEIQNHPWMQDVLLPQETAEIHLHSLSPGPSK

A word on the IC50: it is the concentration at which inhibition is half-maximal. Usually Ki stands for a measure of affinity in units of concentration, obtained from inhibition or displacement. Higher therefore signals weaker binding. Broadly, the EC50 is the concentration at which the effect is half-maximal. As to `CCn1ncc(NC(=O)c2nc(-c3c(F)cccc3F)sc2N)c1N1CCC(N)C(OC)CC1` (single isomer, unassigned) [Example 406, 5-amino-N-[5-(4-amino-5-methoxy-azepan-1-yl)-1-ethyl-pyrazol-4-yl]-2-(2,6-difluorophenyl)thiazole-4-carboxamide], the figures for the IC50 in the assay with BaF3 parental cells (setting [4]) and in the assay with BaF3 PIM1 cells [1] were 12000 nM and 284 nM, respectively. For the same compound, the inhibition constant Ki on PIM1 came out at 0.133 nM. The 50% effective concentration (EC50) in assay [2] (72 hours) came to 404 nM.

On to `CCn1ncc(NC(=O)c2nc(-c3c(F)cccc3F)sc2N)c1N1CCC(N)C(OC)CC1` (single isomer, unassigned) [Example 407, 5-amino-N-[5-(4-amino-5-methoxy-azepan-1-yl)-1-ethyl-pyrazol-4-yl]-2-(2,6-difluorophenyl)thiazole-4-carboxamide], for which the 50% inhibitory concentration (IC50) with BaF3 parental cells (BaF3 parental cells with IL-3, incubated overnight) amounted to 9800 nM; in the assay on BaF3 PIM1 cells [1], 795 nM. Affinity at PIM1 was put at a Ki of 0.204 nM. In assay [2] (72 hours), the EC50 came out at 3500 nM.

With `[2H]C([2H])([2H])OC1CCN(c2c(NC(=O)c3nc(-c4ccccc4F)sc3N)cnn2C)CCC1N` (stereo not shown) [Example 491, 5-amino-N-[5-[4-amino-5-(trideuteriomethoxy)azepan-1-yl]-1-methyl-pyrazol-4-yl]-2-(2-fluorophenyl)thiazole-4-carboxamide], the values for the IC50 with BaF3 parental cells (setting [4]) and in the assay with BaF3 PIM1 cells [3] were greater than 25000 nM and 44.9 nM, respectively. The same compound showed an inhibition constant Ki at PIM1 of 0.055 nM. Further, the 50% effective concentration (EC50) in assay [2] (Homo sapiens, MM1.S, 72 h) came out at 67.9 nM.

Turning to `Cn1ncc(NC(=O)c2nc(-c3c(F)cccc3F)sc2N)c1N1CCC(N)C2(CCO2)CC1` (stereo not shown) [Example 510, 5-amino-N-[5-(5-amino-1-oxa-8-azaspiro[3.6]decan-8-yl)-1-methyl-pyrazol-4-yl]-2-(2,6-difluorophenyl)thiazole-4-carboxamide], the values for the IC50 in the assay with BaF3 parental cells (setting [4]) and in the assay on BaF3 PIM1 cells [3] were 22000 nM and 623 nM, respectively. Besides, at PIM1, the affinity, expressed as Ki, was 0.095 nM. The EC50 in assay [2] (Homo sapiens, MM1.S, 72 h) was 5600 nM.

The record behind these values is patent publication US8614206B2 (Genentech, Inc., priority 2011, dated 2013).
